From patent US20260223849A1, “FUNGICIDAL COMBINATION” (UPL MAURITIUS LIMITED, priority 2023, published 2026)

Tested on: Zymoseptoria tritici (Septoria tritici)
Assay: Efficacy against Zymoseptoria tritici (SEPTTR) on wheat, two applications (stages A and B)
Format: in vivo
Conditions: prothioconazole 520 mL/ha (130 g A/ha), fluxapyroxad 1424 mL/ha (89 g A/ha)
Procedure: The following formula was used to calculate the expected activity of mixtures containing active ingredients, A and B:
[formula] • where A=observed efficacy of active ingredient A at the same concentration as used in the mixture. • B=observed efficacy of active ingredient B at the same concentration as used in the mixture.
In the Colby method, the expected (or predicted) response of a combination of fungicides is calculated by taking the product of the observed response for each individual component of the combination when applied alone divided by 100 and subtracting this value from the sum of the observed response for each component when applied alone. An unexpected enhancement in efficacy of the combination is then determined by comparing the observed response of the combination to the expected (or predicted) response as calculated from the observed response of each individual component alone. If the observed response of the combination is greater than the expected (or predicted) response, or stated conversely, if the difference between the observed and expected response is greater than zero, then the combination is said to be synergistic or unexpectedly effective.
Efficacy of the combination of prothioconazole and fluxapyroxad was determined against Zymoseptoria tritici (Septoria tritici) in wheat crop. The actives prothioconazole and fluxapyroxad were tank mixed and applied as per the table below. Prothioconazole and fluxapyroxad were emulsifiable concentrate formulations with formulation concentrations of 250 g/L and 62.5 g/L, respectively. The applications were made twice at stages ‘A and ‘B’. Stage A was the time at which the first node was at least 1 cm above tillering node (Feekes 6.0=First node visible). Stage ‘B’ was the Flag leaf stage, wherein the flag leaf fully unrolled and ligule was visible (Feekes 9.0=Flag leaf). Applications were made at stage B which was 18 days after application A. The observations were made at 19 DA-A (19 days after application-A) as observed in table 1 (b) and at 23 DA-B (23 days after application B) as observed in Table 1 (c).

[1] = 19 DA-A (19 days after application A)
[2] = 23 DA-B (23 days after application B)

SMILES: Cn1cc(C(=O)Nc2ccccc2-c2cc(F)c(F)c(F)c2)c(C(F)F)n1 [Fluxapyroxad, 3-(difluoromethyl)-1-methyl-N-(3′,4′,5′-trifluorobiphenyl-2-yl) pyrazole-4-carboxamide]
- % Observed Control of Septoria tritici [1]: 25.6%
- % Observed Control of Septoria tritici [2]: 37.8%

SMILES: OC(Cc1ccccc1Cl)(Cn1[nH]cnc1=S)C1(Cl)CC1 (stereo not shown) [Prothioconazole, 2-[2-(1-chlorocyclopropyl)-3-(2-chlorophenyl)-2-hydroxypropyl]-1,2-dihydro-3H-1,2,4-triazole-3-thione]
- % Observed Control of Septoria tritici [1]: 23.7%
- % Observed Control of Septoria tritici [2]: 20.0%
